Patent EP0678100B1, “SYNTHETIC AMPHIPATHIC PEPTIDES WITH ANTIMICROBIAL ACTIVITY” (PIONEER HI-BRED INTERNATIONAL, INC., priority 1993, dated 1998)
Converted amounts (≈) assume the structure as drawn. Read-outs that look alike come from different tables or passages of the source. Residues, ends and D or L forms follow the SMILES beside them. No end group written: not given here.

Key:
F. moniliforme = conditions: for MCIC: Minimum Complete Inhibitory Concentration, achieving a score of 3 or greater
A. flavus = conditions: for MCIC: Minimum Complete Inhibitory Concentration, achieving a score of 3 or greater
[1] = F. graminearum, minimum inhibitory concentration, achieving a score of 1 or greater
[2] = F. moniliforme, minimum inhibitory concentration, achieving a score of 1 or greater
[3] = A. flavus, minimum inhibitory concentration, achieving a score of 1 or greater

With `CC[C@H](C)[C@H](NC(=O)CNC(=O)[C@@H](NC(=O)[C@@H](NC(=O)[C@@H](NC(=O)CNC(=O)[C@@H]1CCCN1C(=O)CNC(=O)[C@H](C)NC(=O)[C@H](CCCCN)NC(=O)[C@@H](NC(=O)[C@H](CCCCN)NC(=O)[C@H](CCCCN)NC(=O)[C@@H]1CCCN1C(=O)[C@@H](NC(=O)[C@H](Cc1c[nH]cn1)NC(=O)[C@H](CCCCN)NC(=O)[C@@H](NC(=O)[C@H](C)NC(=O)[C@H](CCCCN)NC(=O)[C@H](CCC(=O)O)NC(=O)[C@@H](NC(=O)[C@H](CCCCN)NC(=O)[C@@H](N)CCCCN)[C@@H](C)CC)[C@@H](C)CC)[C@@H](C)CC)[C@@H](C)CC)C(C)C)[C@@H](C)O)[C@@H](C)CC)C(=O)N[C@@H](C)C(=O)N[C@@H](Cc1c[nH]cn1)C(=O)N[C@@H](C)C(=O)N[C@@H](CCCCN)C(=O)N[C@@H](CO)C(=O)N[C@@H](CCC(N)=O)C(=O)N[C@@H](CC(C)C)C(=O)N[C@@H](Cc1c[nH]c2ccccc12)C(=O)O` [Peptide 1] (H-KKIEKAIKHIPKKIKAGPGVTIGIAHAKSQLW-OH) the MIC (F. graminearum; [1]) was 17 pg/mL (≈ 0.00487 nM) and the MIC (F. moniliforme; [2]) was 17.

Work on `CC[C@H](C)[C@H](NC(=O)CNC(=O)[C@@H](NC(=O)[C@@H](NC(=O)[C@@H](NC(=O)CNC(=O)[C@@H]1CCCN1C(=O)CNC(=O)[C@H](C)NC(=O)[C@H](CCCCN)NC(=O)[C@H](Cc1c[nH]c2ccccc12)NC(=O)[C@H](Cc1c[nH]cn1)NC(=O)[C@H](CCCNC(=N)N)NC(=O)[C@H](C)NC(=O)[C@H](CC(C)C)NC(=O)[C@H](C)NC(=O)[C@H](CCCNC(=N)N)NC(=O)[C@H](CC(C)C)NC(=O)[C@H](C)NC(=O)[C@H](CCCCN)NC(=O)[C@H](CCCCN)NC(=O)[C@H](CC(C)C)NC(=O)[C@@H](N)CCCCN)C(C)C)[C@@H](C)O)[C@@H](C)CC)C(=O)N[C@@H](C)C(=O)N[C@@H](Cc1c[nH]cn1)C(=O)N[C@@H](C)C(=O)N[C@@H](CCCCN)C(=O)N[C@@H](CO)C(=O)N[C@@H](CCC(N)=O)C(=O)N[C@@H](CC(C)C)C(=O)N[C@@H](Cc1c[nH]c2ccccc12)C(=O)O` [Peptide 2] (H-KLKKALRALARHWKAGPGVTIGIAHAKSQLW-OH) yielded an MIC (F. graminearum; [1]) of 14 pg/mL (≈ 0.00411 nM) and an MIC (F. moniliforme; [2]) of 14.

In the case of `CC[C@H](C)[C@H](NC(=O)CNC(=O)[C@@H](NC(=O)[C@@H](NC(=O)[C@@H](NC(=O)CNC(=O)[C@@H]1CCCN1C(=O)CNC(=O)[C@H](C)NC(=O)[C@H](CC(C)C)NC(=O)[C@H](C)NC(=O)[C@H](CCCNC(=N)N)NC(=O)[C@@H](NC(=O)[C@H](CCCNC(=N)N)NC(=O)[C@@H](NC(=O)[C@H](CCCNC(=N)N)NC(=O)[C@H](CCCNC(=N)N)NC(=O)[C@@H]1CCCN1C(=O)[C@@H](NC(=O)[C@H](Cc1c[nH]cn1)NC(=O)[C@H](CCCNC(=N)N)NC(=O)[C@@H](NC(=O)[C@H](C)NC(=O)[C@H](CCCNC(=N)N)NC(=O)[C@H](Cc1ccc(O)cc1)NC(=O)[C@@H](NC(=O)[C@H](CCCNC(=N)N)NC(=O)[C@H](CCCNC(=N)N)NC(=O)[C@@H](NC(=O)[C@H](C)NC(=O)[C@H](CCCNC(=N)N)NC(=O)[C@@H](N)CCC(N)=O)C(C)C)[C@@H](C)CC)[C@@H](C)CC)[C@@H](C)CC)[C@@H](C)CC)[C@@H](C)CC)C(C)C)[C@@H](C)O)[C@@H](C)CC)C(=O)N[C@@H](C)C(=O)N[C@@H](Cc1c[nH]cn1)C(=O)N[C@@H](C)C(=O)N[C@@H](CCCCN)C(=O)N[C@@H](CO)C(=O)N[C@@H](CCC(N)=O)C(=O)N[C@@H](CC(C)C)C(=O)N[C@@H](Cc1c[nH]c2ccccc12)C(=O)O` [Peptide 3] (H-QRAVRRIYRAIRHIPRRIRIRALAGPGVTIGIAHAKSQLW-OH), the MIC (F. graminearum; [1]) is reported as 13 pg/mL (≈ 0.00281 nM), the MIC (F. moniliforme) is reported as 13 and the “% Inhibition of Growth” value (E. coli; concentration 3.00 µg/ml) is reported as 0%. For the same compound, the “% Inhibition of Growth” value (E. coli; concentration 6.25 µg/ml) was 0%, the “% Inhibition of Growth” value (E. coli; concentration 12.5 µg/ml) was 0% and the “% Inhibition of Growth” value (E. coli; concentration 25 µg/ml) was 0%. For the same compound, the “% Inhibition of Growth” value (E. coli; concentration 50 µg/ml) was 0%, the “% Inhibition of Growth” value (P. syringae; concentration 3.00 µg/ml) was 0% and the “% Inhibition of Growth” value (P. syringae; concentration 6.25 µg/ml) was 11%. For the same compound, the “% Inhibition of Growth” value (P. syringae; concentration 12.5 µg/ml) was 30%, the “% Inhibition of Growth” value (P. syringae; concentration 25 µg/ml) was 48% and the “% Inhibition of Growth” value (P. syringae; concentration 50 µg/ml) was 52%. For the same compound, the “% Inhibition of Growth” value (E. stewartii; concentration 3.00 µg/ml) was 0%, the “% Inhibition of Growth” value (E. stewartii; concentration 6.25 µg/ml) was 0% and the “% Inhibition of Growth” value (E. stewartii; concentration 12.5 µg/ml) was 49%. For the same compound, the “% Inhibition of Growth” value (E. stewartii; concentration 25 µg/ml) was 80% and the “% Inhibition of Growth” value (E. stewartii; concentration 50 µg/ml) was 100%.

`CC[C@H](C)[C@H](NC(=O)CNC(=O)[C@@H](NC(=O)[C@@H](NC(=O)[C@@H](NC(=O)CNC(=O)[C@@H]1CCCN1C(=O)CNC(=O)[C@H](C)NC(=O)[C@H](CC(C)C)NC(=O)[C@H](C)NC(=O)[C@H](CCCNC(=N)N)NC(=O)[C@@H](NC(=O)[C@H](CCCCN)NC(=O)[C@@H](NC(=O)[C@H](CCCCN)NC(=O)[C@H](CCCCN)NC(=O)[C@@H]1CCCN1C(=O)[C@@H](NC(=O)[C@H](Cc1c[nH]cn1)NC(=O)[C@H](CCCCN)NC(=O)[C@@H](NC(=O)[C@H](C)NC(=O)[C@H](CCCCN)NC(=O)[C@H](CCC(=O)O)NC(=O)[C@@H](NC(=O)[C@H](CCCCN)NC(=O)[C@H](CCCCN)NC(=O)[C@@H](NC(=O)[C@H](C)NC(=O)[C@H](CCCNC(=N)N)NC(=O)[C@@H](N)CCC(N)=O)C(C)C)[C@@H](C)CC)[C@@H](C)CC)[C@@H](C)CC)[C@@H](C)CC)[C@@H](C)CC)C(C)C)[C@@H](C)O)[C@@H](C)CC)C(=O)N[C@@H](C)C(=O)N[C@@H](Cc1c[nH]cn1)C(=O)N[C@@H](C)C(=O)N[C@@H](CCCCN)C(=O)N[C@@H](CO)C(=O)N[C@@H](CCC(N)=O)C(=O)N[C@@H](CC(C)C)C(=O)N[C@@H](Cc1c[nH]c2ccccc12)C(=O)O` [Peptide 4] (H-QRAVKKIEKAIKHIPKKIKIRALAGPGVTIGIAHAKSQLW-OH) was tested, and the MIC (F. graminearum; [1]) was 13 pg/mL (≈ 0.00296 nM) and the MIC (F. moniliforme; [2]) was 17.

`CC[C@H](C)[C@H](NC(=O)CNC(=O)[C@@H](NC(=O)[C@@H](NC(=O)[C@@H](NC(=O)CNC(=O)[C@@H]1CCCN1C(=O)CNC(=O)[C@H](C)NC(=O)[C@@H](NC(=O)[C@H](C)NC(=O)[C@H](CCCNC(=N)N)NC(=O)[C@H](CCC(N)=O)NC(=O)[C@H](CC(C)C)NC(=O)[C@H](C)NC(=O)[C@H](CCCNC(=N)N)NC(=O)[C@@H](NC(=O)[C@H](CCCCN)NC(=O)[C@H](CCCNC(=N)N)NC(=O)[C@H](CCCNC(=N)N)NC(=O)[C@H](CC(C)C)NC(=O)[C@H](Cc1c[nH]c2ccccc12)NC(=O)[C@H](CCCNC(=N)N)NC(=O)[C@@H](NC(=O)[C@H](CC(C)C)NC(=O)[C@H](CCCCN)NC(=O)[C@H](CCCNC(=N)N)NC(=O)[C@@H](NC(=O)[C@H](CC(C)C)NC(=O)[C@@H](N)CCCCN)[C@@H](C)CC)[C@@H](C)CC)[C@@H](C)CC)C(C)C)C(C)C)[C@@H](C)O)[C@@H](C)CC)C(=O)N[C@@H](C)C(=O)N[C@@H](Cc1c[nH]cn1)C(=O)N[C@@H](C)C(=O)N[C@@H](CCCCN)C(=O)N[C@@H](CO)C(=O)N[C@@H](CCC(N)=O)C(=O)N[C@@H](CC(C)C)C(=O)N[C@@H](Cc1c[nH]c2ccccc12)C(=O)O` [Peptide 7] (H-KLIRKLIRWLRRKIRALQRAVAGPGVTIGIAHAKSQLW-OH) was tested, and the MIC (A. flavus; [3]) was 40, the MIC (F. graminearum) was 10 pg/mL (≈ 0.00229 nM) and the MIC (F. moniliforme; [2]) was 10.

`CC[C@H](C)[C@H](NC(=O)[C@H](C)NC(=O)[C@H](CCCNC(=N)N)NC(=O)[C@H](Cc1ccc(O)cc1)NC(=O)[C@@H](NC(=O)[C@H](CCCNC(=N)N)NC(=O)[C@@H](N)CCCNC(=N)N)[C@@H](C)CC)C(=O)N[C@@H](CCCNC(=N)N)C(=O)N[C@@H](Cc1c[nH]cn1)C(=O)N[C@H](C(=O)N1CCC[C@H]1C(=O)N[C@@H](CCCNC(=N)N)C(=O)N[C@@H](CCCNC(=N)N)C(=O)N[C@H](C(=O)N[C@@H](CCCNC(=N)N)C(=O)NCC(=O)N[C@@H](Cc1c[nH]c2ccccc12)C(=O)N[C@@H](CC(C)C)C(=O)N[C@@H](CCCNC(=N)N)C(=O)N[C@@H](CCCNC(=N)N)C(=O)N[C@H](C(=O)NCC(=O)N[C@@H](CCCNC(=N)N)C(=O)N[C@@H](CCCNC(=N)N)C(=O)N[C@H](C(=O)N[C@@H](CCC(=O)O)C(=O)N[C@@H](CCCNC(=N)N)C(=O)N[C@H](C(=O)NCC(=O)N[C@@H](CCC(N)=O)C(=O)N[C@@H](Cc1c[nH]cn1)C(=O)O)C(C)C)[C@@H](C)CC)[C@@H](C)CC)[C@@H](C)CC)[C@@H](C)CC` [Peptide 9] (H-RRIYRAIRHIPRRIRGWLRRIGRRIERVGQH-OH) gave an MIC (A. flavus) of 15, an MIC (F. graminearum; [1]) of 10 pg/mL (≈ 0.0025 nM) and an MIC (F. moniliforme) of 10.

For `CC[C@H](C)[C@H](NC(=O)[C@H](C)NC(=O)[C@H](CCCCN)NC(=O)[C@H](CCC(=O)O)NC(=O)[C@@H](NC(=O)[C@H](CCCCN)NC(=O)[C@@H](N)CCCCN)[C@@H](C)CC)C(=O)N[C@@H](CCCCN)C(=O)N[C@@H](Cc1c[nH]cn1)C(=O)N[C@H](C(=O)N1CCC[C@H]1C(=O)N[C@@H](CCCCN)C(=O)N[C@@H](CCCCN)C(=O)N[C@H](C(=O)N[C@@H](CCCCN)C(=O)N[C@@H](CC(C)C)C(=O)N[C@@H](CCCCN)C(=O)N[C@@H](CCCCN)C(=O)N[C@@H](C)C(=O)N[C@@H](CC(C)C)C(=O)N[C@@H](CCCNC(=N)N)C(=O)N[C@@H](C)C(=O)N[C@@H](CC(C)C)C(=O)N[C@@H](C)C(=O)N[C@@H](CCCNC(=N)N)C(=O)N[C@@H](Cc1c[nH]cn1)C(=O)N[C@@H](Cc1c[nH]c2ccccc12)C(=O)N[C@@H](CCCCN)C(=O)O)[C@@H](C)CC)[C@@H](C)CC` [Peptide 10] (H-KKIEKAIKHIPKKIKLKKALRALARHWK-OH), the MIC (A. flavus; [3]) was 80, the MIC (F. graminearum; [1]) was 10 pg/mL (≈ 0.00296 nM) and the MIC (F. moniliforme; [2]) was 7.5.

With Cecropin A [reference compound] the MCIC (A. flavus; A. flavus) was >80 µg/mL, the MIC (A. flavus; [3]) was 80 and the MCIC (F. graminearum) was >80 µg/mL. For the same compound, the MIC (F. graminearum) was 60 pg/mL, the MCIC (F. moniliforme; F. moniliforme) was >80 µg/mL and the MIC (F. moniliforme; [2]) was 80.

“IRALQRAVRHPRAIRRIYRGWKKAIRAGPGVTIGIAHAKSQLW [Peptide 6]” gave an MIC (A. flavus; [3]) of 80, an MIC (F. graminearum; [1]) of 10 pg/mL and an MIC (F. moniliforme; [2]) of 15.

Mastoparan [reference compound] gave an MCIC (A. flavus; A. flavus) of 40 µg/mL, an MIC (A. flavus; [3]) of 20 and an MCIC (F. graminearum) of 10 µg/mL. For the same compound, the MIC (F. graminearum) was 5 pg/mL, the MCIC (F. moniliforme; F. moniliforme) was 10 µg/mL and the MIC (F. moniliforme; [2]) was 2.5.
